The term EC50 denotes the concentration that produces a half-maximal response. Read a low EC50 as an effect from little substance.

In the assay the target is T1, human GLP-1R (Homo sapiens, UniProt P43220).
T1 construct: host or cells: HEK293
T1 sequence (P43220 24-463): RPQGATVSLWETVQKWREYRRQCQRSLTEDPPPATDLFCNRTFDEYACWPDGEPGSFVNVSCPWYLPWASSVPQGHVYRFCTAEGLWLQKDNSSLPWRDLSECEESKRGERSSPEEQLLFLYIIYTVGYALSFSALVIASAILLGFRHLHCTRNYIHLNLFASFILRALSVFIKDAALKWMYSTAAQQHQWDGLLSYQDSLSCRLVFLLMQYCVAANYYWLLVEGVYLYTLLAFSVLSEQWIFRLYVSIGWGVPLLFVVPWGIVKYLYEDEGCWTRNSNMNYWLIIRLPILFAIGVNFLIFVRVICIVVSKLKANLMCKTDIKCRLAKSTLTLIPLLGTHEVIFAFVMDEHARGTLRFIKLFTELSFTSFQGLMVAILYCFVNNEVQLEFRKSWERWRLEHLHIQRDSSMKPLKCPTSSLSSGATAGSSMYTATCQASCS
In words: GLP-1R cAMP assay (Example B1b, HTRF, 30 min at 37°). To be noted: cAMP accumulation in HEK293 expressing human GLP-1R, no BETP, 30 min at 37° (Method B1b), Table 1. The class given is cell-based. The procedure:
Assay was carried out with HEK293 expressing human GLP-1R using HTRF assay, developed by Wuxi Apptec. The method is a competitive assay between native cAMP produced by the cells and exogenous cAMP labeled with a proprietary dye d2. The tracer binding is visualized by a mAb anti-cAMP labeled with Cryptate. The signal (i.e. energy transfer) is inversely proportional to the concentration of CAMP in either standard or experimental sample. Compounds were tested in the absence of BETP. Ten microliter of cell suspension in assay buffer (5 mM HEPES, 500 μM IBMX, 0.1% BSA) were added to each well (1,000 cells per well) in a low volume 384-well plate for the assay. Serially diluted compounds were added in 100 nL volume to duplicate wells, by Labcyte Echo. GLP-1 (7-37) was used as positive control. Assay plate was incubated for 30 minutes at 37°. Stock of cAMP Detection Solution was prepared by mixing 38 parts of cAMP lysis buffer, 1 part of cAMP-D2, 1 part of anti-cAMP cryptate reagent (Cisbio #62AM4PEJ). Ten microliter of the cAMP Detection Solution was added to each well, and the assay plate was incubated for 1 hour at room temperature in the dark. Plates were read on Envision plate reader. The data were analyzed by ScreenUltra in Dotmatics, with % activation expressed using following formula: (Signal ratio […]*10000−negative control)/(postive control−negative control)*100. Dose response curves were plotted and EC50 values calculated by non-linear regression using 4-parameter fit. The potency (EC50) values for cAMP accumulation in HEK293 cells are reported in the Table 1 below (for compounds ID 610-708).
As to `Cc1cc(-c2nn3c(c2-n2ccn(-c4ccc5c(cnn5C)c4F)c2=O)[C@@H](C)N(C(=O)c2cc4cc([C@H]5CCOC(C)(C)C5)ccc4n2[C@@]2(c4noc(=O)[nH]4)C[C@@H]2C)CCC3)cc(C)c1F` [Compound 702, 3-((1S,2S)-1-(5-((S)-2,2-dimethyltetrahydro-2H-pyran-4-yl)-2-((R)-3-(3-(4-fluoro-1-methyl-1H-indazol-5-yl)-2-oxo-2,3-dihydro-1H-imidazol-1-yl)-2-(4-fluoro-3,5-dimethylphenyl)-4-methyl-5,6,7,8-tetrahydro-4H-pyrazolo[1,5-a][1,4]diazepine-5-carbonyl)-1H-indol-1-yl)-2-methylcyclopropyl)-1,2,4-oxadiazol-5 (4H)-one], the EC50 is > 0.1 µM.

The molecule `Cc1cc(-c2nn3c(c2-n2ccn(-c4ccc5c(cnn5C)c4F)c2=O)[C@H](C)N(C(=O)c2cc4cc([C@H]5CCOC(C)(C)C5)ccc4n2[C@@]2(c4noc(=O)[nH]4)C[C@@H]2C)CCC3)cc(C)c1F` [Compound 703, 3-((1S,2S)-1-(5-((S)-2,2-dimethyltetrahydro-2H-pyran-4-yl)-2-((S)-3-(3-(4-fluoro-1-methyl-1H-indazol-5-yl)-2-oxo-2,3-dihydro-1H-imidazol-1-yl)-2-(4-fluoro-3,5-dimethylphenyl)-4-methyl-5,6,7,8-tetrahydro-4H-pyrazolo[1,5-a][1,4]diazepine-5-carbonyl)-1H-indol-1-yl)-2-methylcyclopropyl)-1,2,4-oxadiazol-5 (4H)-one] registered a half-maximal effective concentration (EC50) of 0.0024 µM.

In turn, `Cc1cc(-n2nc3c(c2-n2ccn(-c4ccc5c(cnn5C)c4F)c2=O)[C@@H]2COC[C@H](C3)N2C(=O)c2cc3cc([C@H]4CCOC(C)(C)C4)cc(F)c3n2[C@@]2(c3noc(=O)[nH]3)C[C@@H]2C)cc(C)c1F` [Compound 705, 3-((1S,2S)-1-(5-((S)-2,2-dimethyltetrahydro-2H-pyran-4-yl)-7-fluoro-2-((4R,8S)-3-(3-(4-fluoro-1-methyl-1H-indazol-5-yl)-2-oxo-2,3-dihydro-1H-imidazol-1-yl)-2-(4-fluoro-3,5-dimethylphenyl)-2,4,5,7,8,9-hexahydro-4,8-epiminooxocino [5,4-c]pyrazole-10-carbonyl)-1H-indol-1-yl)-2-methylcyclopropyl)-1,2,4-oxadiazol-5(4H)-one] displayed an EC50 of 0.0024 µM.

As for `Cc1cc(-n2nc3c(c2-n2ccn(-c4ccc5c(cnn5C)c4F)c2=O)[C@@H]2COC[C@H](C3)N2C(=O)c2cc3cc([C@@H]4CCOC(C)(C)C4)cc(F)c3n2[C@@]2(c3noc(=O)[nH]3)C[C@@H]2C)cc(C)c1F` [Compound 706, 3-((1S,2S)-1-(5-((R)-2,2-dimethyltetrahydro-2H-pyran-4-yl)-7-fluoro-2-((4R,8S)-3-(3-(4-fluoro-1-methyl-1H-indazol-5-yl)-2-oxo-2,3-dihydro-1H-imidazol-1-yl)-2-(4-fluoro-3,5-dimethylphenyl)-2,4,5,7,8,9-hexahydro-4,8-epiminooxocino [5,4-c]pyrazole-10-carbonyl)-1H-indol-1-yl)-2-methylcyclopropyl)-1,2,4-oxadiazol-5 (4H)-one], it took 0.059 µM to reach a half-maximal effect (EC50).

With `Cc1cc(-n2nc3c(c2-n2ccn(-c4ccc5c(cnn5C)c4F)c2=O)[C@@H]2CCC[C@H](C3)N2C(=O)c2cc3cc([C@H]4CCOC(C)(C)C4)cc(F)c3n2[C@@]2(c3noc(=O)[nH]3)C[C@@H]2C)cc(C)c1F` [Compound 707, 3-((1S,2S)-1-(5-((S)-2,2-dimethyltetrahydro-2H-pyran-4-yl)-7-fluoro-2-((4S,8R)-3-(3-(4-fluoro-1-methyl-1H-indazol-5-yl)-2-oxo-2,3-dihydro-1H-imidazol-1-yl)-2-(4-fluoro-3,5-dimethylphenyl)-4,5,6,7,8,9-hexahydro-2H-4,8-epiminocycloocta [c]pyrazole-10-carbonyl)-1H-indol-1-yl)-2-methylcyclopropyl)-1,2,4-oxadiazol-5 (4H)-one], the EC50 amounted to 0.0025 µM.

`Cc1cc(-n2nc3c(c2-n2ccn(-c4ccc5c(cnn5C)c4F)c2=O)[C@@H]2CC[C@H](C3)N2C(=O)c2c(F)c3cc(C4CCOC(C)(C)C4)ccc3n2[C@@]2(c3noc(=O)[nH]3)C[C@@H]2C)cc(C)c1F` (stereo partly drawn) [Compound 708, 3-[(1S,2S)-1-[5-(2,2-dimethyltetrahydropyran-4-yl)-3-fluoro-2-[(1S,8R)-4-(4-fluoro-3,5-dimethyl-phenyl)-3-[3-(4-fluoro-1-methyl-indazol-5-yl)-2-oxo-imidazol-1-yl]-4,5,11-triazatricyclo[6.2.1.02,6]undeca-2,5-diene-11-carbonyl]indol-1-yl]-2-methyl-cyclopropyl]-4H-1,2,4-oxadiazol-5-one] yielded an EC50 of 0.0085 µM.

For `Cc1cc(-n2nc3c(c2-n2ccn(-c4ccc5c(c4)N(C)C(=O)C5=O)c2=O)[C@@H]2CCC[C@H](C3)N2C(=O)c2cc3cc([C@H]4CCOC(C)(C)C4)ccc3n2[C@@]2(c3noc(=O)[nH]3)C[C@@H]2C)cc(C)c1F` [Compound 710, 6-(3-((4S,8R)-10-(5-((S)-2,2-dimethyltetrahydro-2H-pyran-4-yl)-1-((1S,2S)-2-methyl-1-(5-oxo-4,5-dihydro-1,2,4-oxadiazol-3-yl)cyclopropyl)-1H-indole-2-carbonyl)-2-(4-fluoro-3,5-dimethylphenyl)-4,5,6,7,8,9-hexahydro-2H-4,8-epiminocycloocta [c]pyrazol-3-yl)-2-oxo-2,3-dihydro-1H-imidazol-1-yl)-1-methylindoline-2,3-dione], the EC50 is 0.004 µM.

In the case of `Cc1cc(-n2nc3c(c2-n2ccn(-c4ccc5c(cnn5C)c4F)c2=O)[C@@H]2CC[C@H](C3)N2C(=O)c2cc3cc([C@H]4CCOC(C)(C)C4)cc(F)c3n2[C@@]2(c3noc(=O)[nH]3)C[C@@H]2C)cc(C)c1F` [Compound 711, 3-[(1S,2S)-1-[5-[(4S)-2,2-dimethyltetrahydropyran-4-yl]-7-fluoro-2-[(1S,8R)-4-(4-fluoro-3,5-dimethyl-phenyl)-3-[3-(4-fluoro-1-methyl-indazol-5-yl)-2-oxo-imidazol-1-yl]-4,5,11-triazatricyclo[6.2.1.02,6]undeca-2,5-diene-11-carbonyl]indol-1-yl]-2-methyl-cyclopropyl]-4H-1,2,4-oxadiazol-5-one], a half-maximal response (EC50) required 0.006 µM.

In turn, `Cc1cc(-n2nc3c(c2-n2ccn(-c4ccc5c(c4)C4(CC4)C(=O)N5C)c2=O)[C@@H]2CCC[C@H](C3)N2C(=O)c2cc3cc([C@H]4CCOC(C)(C)C4)ccc3n2[C@@]2(c3noc(=O)[nH]3)C[C@@H]2C)cc(C)c1F` [Compound 714, 3-((1S,2S)-1-(5-((S)-2,2-dimethyltetrahydro-2H-pyran-4-yl)-2-((4S,8R)-2-(4-fluoro-3,5-dimethylphenyl)-3-(3-(1′-methyl-2′-oxospiro[cyclopropane-1,3′-indolin]-5′-yl)-2-oxo-2,3-dihydro-1H-imidazol-1-yl)-4,5,6,7,8,9-hexahydro-2H-[4,8]epiminocycloocta [c]pyrazole-10-carbonyl)-1H-indol-1-yl)-2-methylcyclopropyl)-1,2,4-oxadiazol-5 (4H)-one] yielded an EC50 of 0.002 µM.

The molecule `Cc1cc(-n2nc3c(c2-n2ccn(-c4ccc5c(cnn5C5CC5)c4F)c2=O)[C@@H]2COC[C@H](C3)N2C(=O)c2cc3cc(C4CCOCC4)ccc3n2[C@@]2(c3noc(=O)[nH]3)C[C@@H]2C)cc(C)c1F` [Compound 715, 3-((1S,2S)-1-(2-((4R,8S)-3-(3-(1-cyclopropyl-4-fluoro-1H-indazol-5-yl)-2-oxo-2,3-dihydro-1H-imidazol-1-yl)-2-(4-fluoro-3,5-dimethylphenyl)-2,4,5,7,8,9-hexahydro-4,8-epiminooxocino [5,4-c]pyrazole-10-carbonyl)-5-(tetrahydro-2H-pyran-4-yl)-1H-indol-1-yl)-2-methylcyclopropyl)-1,2,4-oxadiazol-5 (4H)-one] returned an EC50 of 0.004 µM.

`Cc1cc(-n2nc3c(c2-n2ccn(-c4ccc5c(cnn5C)c4F)c2=O)[C@@H]2CC[C@H](C3)N2C(=O)c2cc3cc(C4CCOC(C)(C)C4)c(F)cc3n2[C@@]2(c3noc(=O)[nH]3)C[C@@H]2C)cc(C)c1F` (stereo partly drawn) [Compound 716, 3-[(1S,2S)-1-[5-(2,2-dimethyltetrahydropyran-4-yl)-6-fluoro-2-[(1S,8R)-4-(4-fluoro-3,5-dimethyl-phenyl)-3-[3-(4-fluoro-1-methyl-indazol-5-yl)-2-oxo-imidazol-1-yl]-4,5,11-triazatricyclo[6.2.1.02,6]undeca-2,5-diene-11-carbonyl]indol-1-yl]-2-methyl-cyclopropyl]-4H-1,2,4-oxadiazol-5-one] gave an EC50 of 0.005 µM.

The values are drawn from patent publication US12617783B2, “Heterocyclic GLP-1R agonists” (BIOMEA FUSION, INC., priority 2024, dated 2026).
